Experimental data: patent publication US20060069132A1, “Azolecarboxamide herbicides” (priority 2004, published 2006)

Experiments:
large crabgrass [1] = assay: Test C pre-/postemergence herbicide test; type: in vivo, Digitaria sanguinalis
rice = assay: Test B pre-/postemergence herbicide test; type: in vivo, Oryza sativa; conditions: preemergence; for Rice plant response rating (0 to 100 scale): 125 g ai/ha; for Plant response rating, Rice: 500 g ai/ha
Summary of the method: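 Greenhouse pot assay with simultaneous preemergence (treated seed) and postemergence (2–18 cm seedlings) applications of surfactant-containing, non-phytotoxic solvent formulations. Response scored visually 13–15 days later on a 0–100 scale, 100 meaning complete control.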

goosegrass = assay: Test C pre-/postemergence herbicide test; type: in vivo, Eleusine indica
velvetleaf = assay: Test C pre-/postemergence herbicide test; type: in vivo, Abutilon theophrasti
pigweed = assay: Test C pre-/postemergence herbicide test; type: in vivo, Amaranthus retroflexus
redroot pigweed = assay: Test A pre-/postemergence herbicide test; type: in vivo, Amaranthus retroflexus
Summary of the method: (§1)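 Greenhouse injury scoring (0–100, complete control = 100) at approximately ten days follows simultaneous pre- and postemergence application. Soil received a directed spray after seeding; seedlings of 2–10 cm at the one- to two-leaf stage were sprayed to runoff.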

large crabgrass [2] = assay: Test A pre-/postemergence herbicide test; type: in vivo, Digitaria sanguinalis
Summary of the method: as §1

[3] = Postemergence, 250 g ai/ha, scale 0 to 100, 0 no effect, 100 complete control
[4] = postemergence, 125 g ai/ha, scale 0 to 100
[5] = 0 = no effect, 100 = complete control
[6] = visual rating, 0 = no effect, 100 = complete control
[7] = postemergence, 62 g ai/ha, scale 0 to 100
[8] = Postemergence, 500 g ai/ha, 0 to 100 scale, 0 no effect, 100 complete control
[9] = Postemergence, 2000 g ai/ha, 0 to 100 scale, 0 no effect, 100 complete control
[10] = Preemergence, 2000 g ai/ha, visual rating, 0 to 100 scale (0 no effect, 100 complete control)
[11] = preemergence, 500 g ai/ha, visual injury, 0 to 100 scale (0 no effect, 100 complete control)

Q: For `CCOC(=O)c1cccc(NC(=O)c2cc(C3(C)CC3)nn2CC)c1` [Compound 295], which “Plant response rating, Crabgrass, Large” value (large crabgrass [1]; [3]) is on record?
A: 35

Q: What about the “Plant response rating, Crabgrass, Large” value (large crabgrass [1]; [4]) of the same molecule?
A: 30

Q: What about the “Rice plant response rating (0 to 100 scale)” value (rice; [5]) of the same molecule?
A: 10

Q: What about the “Plant response rating, Rice” value (rice; [6]) of the same molecule?
A: 20

Q: And the “Plant response rating, Goosegrass” value (goosegrass; [3])?
A: 50

Q: And the “Plant response rating, Goosegrass” value (goosegrass; [4])?
A: 20

Q: What about the “Plant response rating, Goosegrass” value (goosegrass; [7]) of the same molecule?
A: 20

Q: And the “Plant response rating, Velvetleaf” value (velvetleaf; [3])?
A: 70

Q: What about the “Plant response rating, Velvetleaf” value (velvetleaf; [4]) of the same molecule?
A: 65

Q: What about the “Plant response rating, Velvetleaf” value (velvetleaf; [7]) of the same molecule?
A: 60

Q: And the “Plant response rating, Pigweed” value (pigweed; [3])?
A: 95

Q: And the “Plant response rating, Pigweed” value (pigweed; [7])?
A: 80

Q: With `CCn1nc(C(C)(C)C)cc1C(=O)Nc1cncc(C(=O)N2CC=CC2)n1` [Compound 290] as the molecule, how does the “Pigweed plant response rating” value (redroot pigweed; [8]) read?
A: 30

Q: What about the “Plant response rating, Pigweed” value (redroot pigweed; [9]) of the same molecule?
A: 60

Q: And the “Pigweed plant response rating” value (redroot pigweed; [10])?
A: 95

Q: What about the “Pigweed plant response rating” value (redroot pigweed; [11]) of the same molecule?
A: 10

Q: And the “Rice plant response rating (0 to 100 scale)” value (rice; [5])?
A: 0

Q: What about the “Plant response rating, Rice” value (rice; [6]) of the same molecule?
A: 80

Q: And the “Crabgrass, Large plant response rating” value (large crabgrass [2]; [8])?
A: 10

Q: And the “Plant response rating, Crabgrass, Large” value (large crabgrass [2]; [9])?
A: 10

Q: And the “Crabgrass, Large plant response rating” value (large crabgrass [2]; [10])?
A: 25

Q: What about the “Crabgrass, Large plant response rating” value (large crabgrass [2]; [11]) of the same molecule?
A: 5

Q: Which results are given for `CCOc1cccc(NC(=O)c2cc(C(C)(C)C)nn2CC)c1` [Compound 136]?
A: Pigweed plant response rating (redroot pigweed; [8]): 65; Plant response rating, Pigweed (redroot pigweed; [9]): 85; Pigweed plant response rating (redroot pigweed; [10]): 80; Pigweed plant response rating (redroot pigweed; [11]): 70; Plant response rating, Rice (rice; visual rating 0-100, 0 no effect, 100 complete control): 50; Crabgrass, Large plant response rating (large crabgrass [2]; [8]): 35; Plant response rating, Crabgrass, Large (large crabgrass [2]; [9]): 70; Crabgrass, Large plant response rating (large crabgrass [2]; Preemergence, 500 g ai/ha, visual rating, 0 to 100 scale (0 no effect, 100 complete control)): 85; Crabgrass, Large plant response rating (large crabgrass [2]; [10]): 90

Q: What does the source list for `C#CCNC(=O)c1cc(NC(=O)c2cc(C(C)(C)C)nn2CC)ccn1` [Compound 283]?
A: Pigweed plant response rating (redroot pigweed; [8]): 80; Plant response rating, Pigweed (redroot pigweed; [9]): 100; Pigweed plant response rating (redroot pigweed; [10]): 90; Pigweed plant response rating (redroot pigweed; [11]): 60; Rice plant response rating (0 to 100 scale) (rice; [5]): 0; Plant response rating, Rice (rice; [6]): 0; Crabgrass, Large plant response rating (large crabgrass [2]; [8]): 10; Plant response rating, Crabgrass, Large (large crabgrass [2]; [9]): 10; Crabgrass, Large plant response rating (large crabgrass [2]; [10]): 90; Crabgrass, Large plant response rating (large crabgrass [2]; [11]): 15

Q: Which results are given for `CCn1nc(C(C)(C)C)cc1C(=O)Nc1nc(C(=O)N2CC=CC2)ccc1F` [Compound 281]?
A: Pigweed plant response rating (redroot pigweed; [8]): 70; Plant response rating, Pigweed (redroot pigweed; [9]): 70; Pigweed plant response rating (redroot pigweed; [10]): 95; Pigweed plant response rating (redroot pigweed; [11]): 90; Rice plant response rating (0 to 100 scale) (rice; [5]): 20; Plant response rating, Rice (rice; [6]): 60; Crabgrass, Large plant response rating (large crabgrass [2]; [8]): 5; Plant response rating, Crabgrass, Large (large crabgrass [2]; [9]): 10; Crabgrass, Large plant response rating (large crabgrass [2]; [10]): 65; Crabgrass, Large plant response rating (large crabgrass [2]; [11]): 20
